According to paper PMC4365270 (Cancer Chemotherapy and Pharmacology, 2015):
“Also recorded” adds a separate entry of the source.

Experiments:
cIAP-1 [1] = tested on: cIAP-1; design: method as in PMID 21443232; details: cited from earlier work
cIAP-1 [2] = molecular target: T1, cIAP-1 (Homo sapiens, UniProt Q13490); assay: cIAP1 IHC in skin and tumor biopsies; format: in vivo
T1 construct: endogenous in cells; host or cells: peripheral blood mononuclear cells (PBMCs) of patients
Method: (§1) Pharmacokinetic samples were taken from all patients on day 1 (predose, 0.5, 1, 2, 3, 4, 6, 8, 12, 18 h postdose) and on day 5 (predose, 0.5, 1, 2, 3, 4, 6, 8 h postdose) of the first cycle. In addition, for exploratory PD analysis of IAP inhibition and activation of apoptosis, optional skin and tumor biopsies were taken from consenting patients on days 1 (predose) and 5 and blood samples on day 1 (predose, 1, 3, 6, 8, 12 h postdose), day 2 (predose), and day 5 (3 h postdose).
(§2) cIAP-1 levels were measured in tumor tissue and surrogate tissue as available. Peripheral blood mononuclear cells (PBMCs) were analyzed for DEBIO1143-induced cIAP-1 degradation. Plasma native cytokeratin-18 (M65) or caspase-3 generated cytokeratin-18 fragments (M30), interleukin 8 (IL8), chemokine ligand 2 (CCL2, MCP1), and tumor necrosis factor α (TNFα) were measured by ELISA as markers of epithelial cell death and inflammation on days 1 (predose, 1, 3, 6, and 12 h postdose), 2, and 5.
(§3) For the detection of cIAP-1 in paraffin-embedded human tissue, a validated immunohistochemical (IHC) assay was used. DEBIO1143-induced cIAP-1 degradation was measured in PBMCs using Western blot. Plasma biomarkers were measured through commercial ELISAs. All laboratory analyses were performed by MPI Research, Inc. (PK) and Mosaic Laboratory, LLC (PD).

[3] = tested on: various human cancer cell lines; design: method as in PMID 21264751, PMID 22669575; details: in vitro; cited from earlier work
cIAP-1 [4] = molecular target: T1, cIAP-1; assay: cIAP1 degradation in PBMCs, Western blot; format: in vivo
Method: as §1, §2, §3

[5] = dogs; cited from earlier work
[6] = design: method as in PMID 23813446; details: non-human primates; cited from earlier work
[7] = tested on: chemokine ligand 2 (CCL2, MCP1); assay: Plasma CCL2 ELISA; format: in vivo, human
Method: as §2, with “([…])” for “(M65)”, “5. […] For the detection of cIAP-1 in paraffin-embedded human tissue, a validated immunohistochemical (IHC) assay was used. DEBIO1143-induced cIAP-1 degradation was measured in PBMCs using Western blot. Plasma biomarkers were measured through commercial ELISAs. All laboratory analyses were performed by MPI Research, Inc. (PK) and Mosaic Laboratory, LLC (PD).” for “5.”

T1 sequence (Q13490 whole entry): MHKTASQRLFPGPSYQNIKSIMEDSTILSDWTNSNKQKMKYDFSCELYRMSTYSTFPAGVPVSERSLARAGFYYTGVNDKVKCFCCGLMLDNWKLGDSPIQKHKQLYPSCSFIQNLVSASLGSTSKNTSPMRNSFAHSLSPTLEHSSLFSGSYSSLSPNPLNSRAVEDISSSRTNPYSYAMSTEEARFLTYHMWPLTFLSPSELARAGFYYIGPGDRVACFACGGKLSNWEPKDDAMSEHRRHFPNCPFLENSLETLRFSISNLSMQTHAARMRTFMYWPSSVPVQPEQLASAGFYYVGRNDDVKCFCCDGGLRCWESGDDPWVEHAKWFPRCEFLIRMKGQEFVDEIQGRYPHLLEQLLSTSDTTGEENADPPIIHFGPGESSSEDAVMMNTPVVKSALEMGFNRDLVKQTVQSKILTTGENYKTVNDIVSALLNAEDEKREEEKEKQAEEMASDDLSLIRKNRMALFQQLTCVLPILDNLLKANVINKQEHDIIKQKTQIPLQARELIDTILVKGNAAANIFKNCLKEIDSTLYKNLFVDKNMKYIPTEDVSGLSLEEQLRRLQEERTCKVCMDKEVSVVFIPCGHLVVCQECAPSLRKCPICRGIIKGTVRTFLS

CN[C@@H](C)C(=O)N[C@H]1CN(C(=O)CC(C)C)CC[C@H]2CC[C@@H](C(=O)NC(c3ccccc3)c3ccccc3)N2C1=O [DEBIO1143]
cIAP-1 degradation (cIAP-1 [1]): rapidly induced degradation of cIAP-1 | cIAP1 level in skin biopsies (IHC) (cIAP-1 [2]; 12 patients): trend for a decrease | Immunoactivity of cIAP1 in tumor biopsy (IHC) (cIAP-1 [2]; melanoma patient, 120 mg/day, day 5, predose 150): 130 | Percentage of cIAP1-positive cells in tumor biopsies (cIAP-1 [2]; melanoma patient, 400 mg/d): only negligible effect | Cell growth [3]: inhibit cell growth | cIAP1/Actin in PBMC, mean (SD) (cIAP-1 [4]; 120 mg, 1h, N=1): 2% (0) % from baseline | cIAP1/Actin in PBMC, median (range) (cIAP-1 [4]; 120 mg, 1h, N=1): 2 (2-2) % from baseline | cIAP1/Actin in PBMC, mean (SD) (cIAP-1 [4]; 120 mg, 3h, N=1): 2% (0) % from baseline | cIAP1/Actin in PBMC, median (range) (cIAP-1 [4]; 120 mg, 3h, N=1): 2 (2-2) % from baseline | cIAP1/Actin in PBMC, mean (SD) (cIAP-1 [4]; 120 mg, 6h, N=1): 4% (0) % from baseline | cIAP1/Actin in PBMC, median (range) (cIAP-1 [4]; 120 mg, 6h, N=1): 4 (4-4) % from baseline | cIAP1/Actin in PBMC, mean (SD) (cIAP-1 [4]; 120 mg, 12h, N=1): 3% (0) % from baseline | cIAP1/Actin in PBMC, median (range) (cIAP-1 [4]; 120 mg, 12h, N=1): 3 (3-3) % from baseline | cIAP1/Actin in PBMC, mean (SD) (cIAP-1 [4]; 120 mg, 24h, N=1): 4% (0) % from baseline | cIAP1/Actin in PBMC, median (range) (cIAP-1 [4]; 120 mg, 24h, N=1): 4 (4-4) % from baseline | cIAP1/Actin in PBMC, mean (SD) (cIAP-1 [4]; 120 mg, 99h, N=1): 5% (0) % from baseline | cIAP1/Actin in PBMC, median (range) (cIAP-1 [4]; 120 mg, 99h, N=1): 5 (5-5) % from baseline | cIAP1/Actin in PBMC, mean (SD) (cIAP-1 [4]; 180 mg, 1h, N=6): 34% (31) % from baseline | cIAP1/Actin in PBMC, median (range) (cIAP-1 [4]; 180 mg, 1h, N=6): 33 (0-78) % from baseline | cIAP1/Actin in PBMC, mean (SD) (cIAP-1 [4]; 180 mg, 3h, N=6): 20% (25) % from baseline | cIAP1/Actin in PBMC, median (range) (cIAP-1 [4]; 180 mg, 3h, N=6): 12 (3-68) % from baseline | cIAP1/Actin in PBMC, mean (SD) (cIAP-1 [4]; 180 mg, 6h, N=7): 6% (8) % from baseline | cIAP1/Actin in PBMC, median (range) (cIAP-1 [4]; 180 mg, 6h, N=7): 5 (0-24) % from baseline | cIAP1/Actin in PBMC, mean (SD) (cIAP-1 [4]; 180 mg, 12h, N=3): 8% (7) % from baseline | cIAP1/Actin in PBMC, median (range) (cIAP-1 [4]; 180 mg, 12h, N=3): 5 (4-16) % from baseline | cIAP1/Actin in PBMC, mean (SD) (cIAP-1 [4]; 180 mg, 24h, N=6): 9% (10) % from baseline | cIAP1/Actin in PBMC, median (range) (cIAP-1 [4]; 180 mg, 24h, N=6): 5 (3-29) % from baseline | cIAP1/Actin in PBMC, mean (SD) (cIAP-1 [4]; 180 mg, 99h, N=6): 2% (2) % from baseline | cIAP1/Actin in PBMC, median (range) (cIAP-1 [4]; 180 mg, 99h, N=6): 0 (0-5) % from baseline | cIAP1/Actin in PBMC, mean (SD) (cIAP-1 [4]; 260 mg, 1h, N=3): 39% (33) % from baseline | cIAP1/Actin in PBMC, median (range) (cIAP-1 [4]; 260 mg, 1h, N=3): 44 (4-70) % from baseline | cIAP1/Actin in PBMC, mean (SD) (cIAP-1 [4]; 260 mg, 3h, N=3): 45% (50) % from baseline | cIAP1/Actin in PBMC, median (range) (cIAP-1 [4]; 260 mg, 3h, N=3): 24 (9-103) % from baseline | cIAP1/Actin in PBMC, mean (SD) (cIAP-1 [4]; 260 mg, 6h, N=3): 9% (4) % from baseline | cIAP1/Actin in PBMC, median (range) (cIAP-1 [4]; 260 mg, 6h, N=3): 8 (5-13) % from baseline | cIAP1/Actin in PBMC, mean (SD) (cIAP-1 [4]; 260 mg, 12h, N=2): 14% (5) % from baseline | cIAP1/Actin in PBMC, median (range) (cIAP-1 [4]; 260 mg, 12h, N=2): 14 (10-17) % from baseline | cIAP1/Actin in PBMC, mean (SD) (cIAP-1 [4]; 260 mg, 24h, N=3): 9% (7) % from baseline | cIAP1/Actin in PBMC, median (range) (cIAP-1 [4]; 260 mg, 24h, N=3): 6 (5-16) % from baseline | cIAP1/Actin in PBMC, mean (SD) (cIAP-1 [4]; 260 mg, 99h, N=3): 6% (3) % from baseline | cIAP1/Actin in PBMC, median (range) (cIAP-1 [4]; 260 mg, 99h, N=3): 6 (3-8) % from baseline | cIAP1/Actin in PBMC, mean (SD) (cIAP-1 [4]; 400 mg, 1h, N=1): 14% (0) % from baseline | cIAP1/Actin in PBMC, median (range) (cIAP-1 [4]; 400 mg, 1h, N=1): 14 (14-14) % from baseline | cIAP1/Actin in PBMC, mean (SD) (cIAP-1 [4]; 400 mg, 3h, N=2): 4% (2) % from baseline | cIAP1/Actin in PBMC, median (range) (cIAP-1 [4]; 400 mg, 3h, N=2): 4 (3-6) % from baseline | cIAP1/Actin in PBMC, mean (SD) (cIAP-1 [4]; 400 mg, 6h, N=2): 6% (4) % from baseline | cIAP1/Actin in PBMC, median (range) (cIAP-1 [4]; 400 mg, 6h, N=2): 6 (2-9) % from baseline | cIAP1/Actin in PBMC, mean (SD) (cIAP-1 [4]; 400 mg, 24h, N=2): 19% (26) % from baseline | cIAP1/Actin in PBMC, median (range) (cIAP-1 [4]; 400 mg, 24h, N=2): 19 (0-37) % from baseline | cIAP1/Actin in PBMC, mean (SD) (cIAP-1 [4]; 400 mg, 99h, N=2): 28% (31) % from baseline | cIAP1/Actin in PBMC, median (range) (cIAP-1 [4]; 400 mg, 99h, N=2): 28 (6-51) % from baseline | cIAP1/Actin in PBMC, mean (SD) (cIAP-1 [4]; 600 mg, 1h, N=3): 27% (9) % from baseline | cIAP1/Actin in PBMC, median (range) (cIAP-1 [4]; 600 mg, 1h, N=3): 25 (20-38) % from baseline | cIAP1/Actin in PBMC, mean (SD) (cIAP-1 [4]; 600 mg, 3h, N=3): 24% (11) % from baseline | cIAP1/Actin in PBMC, median (range) (cIAP-1 [4]; 600 mg, 3h, N=3): 18 (17-36) % from baseline | cIAP1/Actin in PBMC, mean (SD) (cIAP-1 [4]; 600 mg, 6h, N=3): 20% (11) % from baseline | cIAP1/Actin in PBMC, median (range) (cIAP-1 [4]; 600 mg, 6h, N=3): 17 (11-33) % from baseline | cIAP1/Actin in PBMC, mean (SD) (cIAP-1 [4]; 600 mg, 12h, N=1): 36% (0) % from baseline | cIAP1/Actin in PBMC, median (range) (cIAP-1 [4]; 600 mg, 12h, N=1): 36 (36-36) % from baseline | cIAP1/Actin in PBMC, mean (SD) (cIAP-1 [4]; 600 mg, 24h, N=3): 29% (36) % from baseline | cIAP1/Actin in PBMC, median (range) (cIAP-1 [4]; 600 mg, 24h, N=3): 14 (3-70) % from baseline | cIAP1/Actin in PBMC, mean (SD) (cIAP-1 [4]; 600 mg, 99h, N=2): 14% (19) % from baseline | cIAP1/Actin in PBMC, median (range) (cIAP-1 [4]; 600 mg, 99h, N=2): 14 (0-28) % from baseline | cIAP1/Actin in PBMC, mean (SD) (cIAP-1 [4]; 900 mg, 1h, N=5): 11% (8) % from baseline | cIAP1/Actin in PBMC, median (range) (cIAP-1 [4]; 900 mg, 1h, N=5): 9 (2-24) % from baseline | cIAP1/Actin in PBMC, mean (SD) (cIAP-1 [4]; 900 mg, 3h, N=4): 15% (23) % from baseline | cIAP1/Actin in PBMC, median (range) (cIAP-1 [4]; 900 mg, 3h, N=4): 3 (3-49) % from baseline | cIAP1/Actin in PBMC, mean (SD) (cIAP-1 [4]; 900 mg, 6h, N=4): 14% (13) % from baseline | cIAP1/Actin in PBMC, median (range) (cIAP-1 [4]; 900 mg, 6h, N=4): 11 (1-32) % from baseline | cIAP1/Actin in PBMC, mean (SD) (cIAP-1 [4]; 900 mg, 12h, N=2): 9% (2) % from baseline | cIAP1/Actin in PBMC, median (range) (cIAP-1 [4]; 900 mg, 12h, N=2): 9 (7-10) % from baseline | cIAP1/Actin in PBMC, mean (SD) (cIAP-1 [4]; 900 mg, 24h, N=4): 11% (18) % from baseline | cIAP1/Actin in PBMC, median (range) (cIAP-1 [4]; 900 mg, 24h, N=4): 3 (0-38) % from baseline | cIAP1/Actin in PBMC, mean (SD) (cIAP-1 [4]; 900 mg, 99h, N=4): 7% (6) % from baseline | cIAP1/Actin in PBMC, median (range) (cIAP-1 [4]; 900 mg, 99h, N=4): 8 (0-14) % from baseline | cIAP1 in PBMCs (Western blot) (cIAP-1 [4]; patients with detectable cIAP1, doses above 80 mg): decreased; also recorded: rapid and persistent cIAP1 degradation | No observable adverse event level (NOAEL) [5]: 1 mg/kg | Oral bioavailability [6]: good | Patients with increased plasma CCL2 ([7]; 900 mg): five out of six | Plasma CCL2, mean increase ([7]; 900 mg, six patients): 45% | Plasma CCL2 increase, range ([7]; 900 mg, six patients): −6 to 54% | Plasma CCL2 increase, significance ([7]; 3 and 6 h postdose, p < 0.0001): significant | Patients with increased plasma CCL2 ([7]; all dose levels, 25 patients): 14
